Experimental data published in patent publication US4305940A, “Benzamides with local anaesthetic and antiarrhythmic activity, salts, and method of preparation thereof and pharmaceutical compositions therefrom” (B.B.R. Boehringer Biochemia Robin S.p.A., priority 1979, dated 1981).
Where a name gives a salt, the structure may show the parent alone.

What was measured:
corneal reflux = assay: Surface anaesthesia (corneal reflux, conjunctival sac); conditions: for Surface anaesthesia DL50/CE50: analogous to therapeutic index, DL50 i.p.; for Surface anaesthesia CE50: concentration in percent achieving 50% of total responses, pH 7 saline, hydrochloride salts; for Surface anaesthesia activity with respect to lidocaine: lidocaine = 1
Description: (§1) The data reported hereinbelow relate in every instance to the hydrochloride salts of the individual compounds.
The surface anaesthesia has been determined in rabbits according to the method of M. R. A. Change and H. Lobstein (J. Pharmacol. Exper. Ther., 82, 203, 1944). The compounds dissolved in physiological saline solution of pH 7 were injected into the conjunctival sac and the corneal reflux was induced with the brush of Frey six times at intervals of five minutes for a total period of 40 minutes.

[1] = tested on: response to skin puncture; assay: Anaesthesia by infiltration (subcutaneous, back puncture); type: in vivo, guinea pigs; conditions: for Infiltration anaesthesia DL50/CE50: analogous to therapeutic index, DL50 i.p.; for Infiltration anaesthesia CE50: concentration in percent achieving 50% of total responses, hydrochloride salts; for Infiltration anaesthesia DL50/CE50 relative to lidocaine / Infiltration anaesthesia activity with respect to lidocaine: lidocaine = 1
Description: The anaesthesia by infiltration has been determined in guinea pigs according to the method of E. Bulbring and I. Wajda, (Journal of Pharmacol. Exper. Ther. 85, 78, 1945). In each experiment, four doses of the substance in 0.25 cc of physiological saline solution is injected subcutaneously on the back after removal of hair. After five minutes, each animal is punctured six times at intervals of […].
The test was repeated every five minutes for a period of 30 minutes. The extent of anaesthesia by infiltration was measured quantitatively by determining the sum of the instances in which the animal remained immobile during the thirty minute period on 36 possible blinks.

[2] = tested on: reflux of contraction of the lower limbs (lumbar plexus); assay: Anaesthesia by conduction (lumbar plexus); type: in vivo, frogs; conditions: for Conduction anaesthesia DL50/t' / Conduction anaesthesia 1/t'max. (c = 1%) with respect to lidocaine: c = 1%; for Conduction anaesthesia DL50/t': DL50 i.p.; for Conduction anaesthesia 1/t'max. (c = 1%) with respect to lidocaine / Conduction anaesthesia DL50/t' relative to lidocaine: lidocaine = 1
Description: Anaesthesia by conduction has been determined on frogs according to the method of E. Bulbring and I. Wajda (Journal Pharmacol. Exper. Ther., 85, 78, 1945). The compounds dissolved in physiological saline solution are introduced into the cavity obtained by a transversal incision in the abdomen and separating the viscera in order to expose the lumbar plexus. The period of time necessary to eliminate the reflux of contraction of the lower limbs stimulated by immersion of both posterior legs into hydrochloric acid of increasing concentration between 0.05-0.1-0.2 N for a period not in excess of ten seconds, at intervals of one minute is determined. The extent of anaesthesia of conduction has been determined by measuring the period of time required for each compound in three different concentrations, 0.2%-0.5%-1.0% in order to abolish the reflex of contraction with the concentration of hydrochloric acid indicated hereinabove.

Swiss rats = assay: in vivo; conditions: lidocaine = 1
Description: (§2) The behavior of the animals has then been followed for a period of five days. The DL50 has been determined according to the method of I. T. Litchfield and F. Wilcoxon, (J. Pharmacol. Exper. Ther., 96, 99, 1949). The compound numbers in Table II correspond to the numbers in Table I.

in vivo = conditions: rat, in vivo, ip; 5 days; hydrochloride salts; range in parentheses; read-out: DL50 i.p.
Description: as §2

[3] = tested on: aconitine-induced ventricular arrhythmia; assay: Anti-arrhythmic activity, aconitine infusion; type: in vivo, Wistar rats; conditions: for Aconitine i.v. necessary to induce ventricular arrhythmia: 3 min before aconitine 10 mcg/kg/min
Description: as §1
This determination has been made in Wistar rats, anaesthetized with ethylurethane, (1 g/kg i.p.), according to the method of B. Vargaftig and J. L. Coigner (European Journal Pharmacology, 6, 49, 1969). The compounds dissolved in physiological saline solution, are injected intravenously three minutes prior to the infusion of aconitine, (10 mcg/kg/min.). The extent of anti-arrhythmic activity is determined quantitatively by determining the amount of aconitine necessary to induce ventricular arrhythmia.

SMILES	Surface anaesthesia DL50/CE50 (corneal reflux)	Surface anaesthesia CE50 (corneal reflux) [%]	Surface anaesthesia activity with respect to lidocaine (corneal reflux)	Infiltration anaesthesia DL50/CE50 [1]	Infiltration anaesthesia CE50 [1] [%]	Infiltration anaesthesia DL50/CE50 relative to lidocaine [1]	Infiltration anaesthesia activity with respect to lidocaine [1]	Conduction anaesthesia DL50/t' [2]	Conduction anaesthesia 1/t'max. (c = 1%) with respect to lidocaine [2]	Conduction anaesthesia DL50/t' relative to lidocaine [2]	DL50 i.p. relative to lidocaine (Swiss rats)	LD50 at 120 h (in vivo) [mg/kg]	other results
Cc1cccc(C)c1NC(=O)c1ccccc1CN1CCCCC1 [Compound 7]	290	0.30	7.66	414	0.21	2.19	3.57	87	11.1	6.69	0.61	87.1	
CCN(CC)Cc1ccccc1C(=O)Nc1c(C)cccc1Cl [Compound 13]	27	0.60	3.83	58	0.28	0.31	2.68	16	11.1	1.23	0.11	16.3	Aconitine i.v. necessary to induce ventricular arrhythmia ([3]; 0.6 mg/kg i.v.): 48 ± 6 µg/kg; Aconitine i.v. necessary to induce ventricular arrhythmia ([3]; 1.0 mg/kg i.v.): 65 ± 7 µg/kg; Aconitine i.v. necessary to induce ventricular arrhythmia ([3]; 3.0 mg/kg i.v.): 67 ± 7 µg/kg; Anti-arrhythmic activity compared with lidocaine ([3]; times more active than lidocaine): at least twenty times more active than lidocaine; Anti-arrhythmic activity compared with quinidine ([3]; times more active than quinidine): at least ten times more active than quinidine
Cc1cccc(C)c1NC(=O)c1ccc(CN2CCCC2)cc1 [Compound 6]	13	16.03	0.14	48	4.50	0.25	0.16	107	5.5	8.31	1.51	215	
CCN(CC)Cc1ccc(C(=O)Nc2c(C)cccc2C)cc1 [Compound 3]	17	4.78	0.48	10	8.02	0.05	0.09	9	1.2	0.69	0.58	82.5	Aconitine i.v. necessary to induce ventricular arrhythmia ([3]; 1.0 mg/kg i.v.): 38 ± 5 µg/kg; Aconitine i.v. necessary to induce ventricular arrhythmia ([3]; 3.0 mg/kg i.v.): 39 ± 6 µg/kg; Aconitine i.v. necessary to induce ventricular arrhythmia ([3]; 8.0 mg/kg i.v.): 47 ± 7 µg/kg
Cc1cccc(C)c1NC(=O)c1ccc(CN2CCOCC2)cc1 [Compound 12]	82	2.82	0.82	102	2.25	0.54	0.33	57	2.7	4.46	1.62	230	
Cc1cccc(C)c1NC(=O)c1ccc(CN2CCCCC2)cc1 [Compound 9, 2,6-Dimethylanilide of 4-piperidinomethyl-benzoic acid]	109	1.92	1.20	750	0.28	3.97	2.67	19	1.0	1.46	1.48	210	
C=C[C@H]1C[N@@]2CC[C@H]1C[C@@H]2[C@@H](O)c1ccnc2ccc(OC)cc12 [Quinidine sulfate, reference compound]													Aconitine i.v. necessary to induce ventricular arrhythmia ([3]; 10.0 mg/kg i.v.): 50 ± 3 µg/kg; Aconitine i.v. necessary to induce ventricular arrhythmia ([3]; 40.0 mg/kg i.v.): 88 ± 11 µg/kg
Cc1cccc(C)c1NC(=O)c1cccc(CN2CCOCC2)c1 [Compound 11]	22	11.90	0.19	273	0.95	1.44	0.79	29	1.2	2.15	1.83	260	
CCN(CC)CC(=O)Nc1c(C)cccc1C [Lidocaine hydrochloride, reference compound]													Aconitine i.v. necessary to induce ventricular arrhythmia ([3]; 12.5 mg/kg i.v.): 41 ± 4 µg/kg; Aconitine i.v. necessary to induce ventricular arrhythmia ([3]; 25.0 mg/kg i.v.): 54 ± 5 µg/kg
Cc1cccc(C)c1NC(=O)c1cccc(CN2CCCC2)c1 [Compound 5]	9	24.12	0.09	28	8.01	0.15	0.09	225	11.1	17.31	1.58	225	
Cc1cccc(C)c1NC(=O)c1ccccc1CN1CCOCC1 [Compound 10]	34	6.86	0.34	98	2.34	0.52	0.32	21	1.0	1.61	1.62	230	
Cc1cccc(C)c1NC(=O)c1cccc(CN2CCCCC2)c1 [Compound 8]	73	2.82	0.82	569	0.36	3.01	2.08	41	2.2	3.15	1.44	205	
Cc1cccc(C)c1NC(=O)c1ccccc1CN1CCCC1 [Compound 4]	30	1.85	1.24	162	0.34	0.86	2.20	55	11.1	4.23	0.39	55	
